Patent US11612595B2, “Compositions and methods for treating rheumatoid arthritis” (Generos Biopharma Ltd., priority 2017, dated 2023)

Legend:
STAT5 = target: T1, STAT5 (Homo sapiens, UniProt P42229+P51692); set-up: endogenous in cells; conditions: Daudi cells; cited from earlier work
T1 sequence (P42229 1-794): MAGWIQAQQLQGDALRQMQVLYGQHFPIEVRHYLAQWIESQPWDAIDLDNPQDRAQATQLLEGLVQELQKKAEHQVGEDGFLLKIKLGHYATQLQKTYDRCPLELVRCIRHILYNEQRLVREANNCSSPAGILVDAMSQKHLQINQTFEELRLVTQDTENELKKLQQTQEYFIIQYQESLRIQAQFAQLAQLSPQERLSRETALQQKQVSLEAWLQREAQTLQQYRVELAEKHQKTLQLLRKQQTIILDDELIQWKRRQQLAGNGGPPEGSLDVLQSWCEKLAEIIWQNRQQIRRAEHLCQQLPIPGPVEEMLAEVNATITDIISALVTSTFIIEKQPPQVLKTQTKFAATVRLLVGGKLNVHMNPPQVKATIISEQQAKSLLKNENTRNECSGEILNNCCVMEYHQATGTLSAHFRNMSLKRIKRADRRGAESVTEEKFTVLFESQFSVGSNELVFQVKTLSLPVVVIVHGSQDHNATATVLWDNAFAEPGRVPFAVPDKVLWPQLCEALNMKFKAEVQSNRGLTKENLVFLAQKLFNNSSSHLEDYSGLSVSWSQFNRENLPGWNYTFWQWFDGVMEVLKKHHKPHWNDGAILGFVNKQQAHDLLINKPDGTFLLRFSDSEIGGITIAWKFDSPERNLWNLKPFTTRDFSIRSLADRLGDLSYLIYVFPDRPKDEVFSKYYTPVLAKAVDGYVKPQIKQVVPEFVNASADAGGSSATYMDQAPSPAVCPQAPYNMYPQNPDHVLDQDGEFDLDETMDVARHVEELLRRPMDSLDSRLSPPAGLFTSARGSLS
T1 sequence (P51692 1-787): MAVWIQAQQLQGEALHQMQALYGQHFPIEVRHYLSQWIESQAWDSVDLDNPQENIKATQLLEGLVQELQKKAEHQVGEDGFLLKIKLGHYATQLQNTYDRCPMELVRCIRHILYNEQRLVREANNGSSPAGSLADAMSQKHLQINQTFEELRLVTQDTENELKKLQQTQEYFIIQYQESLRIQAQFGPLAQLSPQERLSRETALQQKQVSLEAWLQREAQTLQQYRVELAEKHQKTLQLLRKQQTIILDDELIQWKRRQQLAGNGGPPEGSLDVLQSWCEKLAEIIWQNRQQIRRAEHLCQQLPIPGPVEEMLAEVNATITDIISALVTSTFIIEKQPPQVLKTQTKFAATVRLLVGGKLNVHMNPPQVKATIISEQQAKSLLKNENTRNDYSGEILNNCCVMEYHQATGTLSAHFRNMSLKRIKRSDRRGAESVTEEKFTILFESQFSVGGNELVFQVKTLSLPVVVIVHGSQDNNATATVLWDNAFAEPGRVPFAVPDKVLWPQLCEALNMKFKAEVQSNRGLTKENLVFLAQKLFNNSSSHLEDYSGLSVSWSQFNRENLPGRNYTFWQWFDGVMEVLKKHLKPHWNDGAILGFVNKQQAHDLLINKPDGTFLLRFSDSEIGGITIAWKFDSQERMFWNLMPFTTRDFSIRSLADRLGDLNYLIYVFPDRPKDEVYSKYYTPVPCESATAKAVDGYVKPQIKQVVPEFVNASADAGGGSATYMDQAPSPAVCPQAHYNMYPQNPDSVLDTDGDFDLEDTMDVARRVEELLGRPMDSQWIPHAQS

[1] = test system: adjuvant-induced arthritis (AIA) rat model; assay: AIA rat model, paw volume and clinical scores; format: in vivo, rats
Description: FIG. 3 is a graph illustrating the treatment scheme in an adjuvant-induced arthritis (AIA) rat model. In the prophylactic group, treatment starts from day 0 and administered every other day. In the therapeutic group, treatment starts from day 13 and was administered every other day.
Three groups (10 rats in each group) of female rats (age 8 weeks) were subject to AIA model induction and then to different treatment schemes. Specifically, 100 ug mBSA mixed with CFA was injected s.c. to flank near tail, and one dose of B. pertusiss was injected i.p. the next day to boost the immune reaction. The first of the three groups of rats were treated with DMSO (Vehicle). The second of the three groups of rats were treated with pimozide (Sigma-Aldrich) 10 mg/kg of body weight (same unit are used throughout this application) in 30% PEG300 solution via intraperitoneal injection with collagen injection starting from day 7 (Therapeutic). The last of the three groups of rats were treated with pimozide (Sigma-Aldrich) 10 mg/kg in 30% PEG300 solution via intraperitoneal injection either with collagen injection starting from day 0. As a control, a fourth group of female rats (5 rats) were spared the AIA model induction and were not treated. The inventors collected data of the weight, paw volume, and clinical scores every three days and performed statistic analysis.
The clinical scores were derived according to the scheme in Table 1.
The method used in the statistic analysis was Student's t test, unpaired, two-tailed analysis.

[2] = Prophylactic group, 10 mg/kg i.p. from day 0, starting from day 13
[3] = Therapeutic group, 10 mg/kg i.p., starting from day 17

| Compound | IFN-α-stimulated STAT5 tyrosine phosphorylation (STAT5) | clinical score vs Vehicle group [1, 2] | paw volume vs Vehicle group [1, 2] | clinical score vs Vehicle group [1, 3] | paw volume vs Vehicle group [1, 3] |
| --- | --- | --- | --- | --- | --- |
| O=C(N/N=C/c1coc2ccccc2c1=O)c1cccnc1 [nicotinohydrazide, N′-((4-Oxo-4H-chromen-3-yl)methylene)nicotinohydrazide] | inhibit | – | – | – | – |
| O=c1[nH]c2ccccc2n1C1CCN(CCCC(c2ccc(F)cc2)c2ccc(F)cc2)CC1 [pimozide, 1-[1-[4,4-bis(4-fluorophenyl)butyl]-4-piperidinyl]-1,3-dihydro-2H-benzimidazole-2-one] | – | significantly decreased | significantly decreased | significantly decreased | significantly decreased |
